According to patent publication US12522602B2, “Derivatives having 2,3-dihydro-1H-indene or 2,3-dihydrobenzofuran moiety or pharmaceutically acceptable salt thereof and pharmaceutical compositions comprising the same” (YUHAN CORPORATION, priority 2019, dated 2026):

Test system: GM1 production in Jurkat cells
Assay: cells
Format: cell-based
Conditions: not given

Question: How did the IC50 turn out when COc1cc2c(cc1-c1ccc(CC(C)C)cc1)CC(C)(C)C2NC(=O)O[C@@H]1CN2CCC1CC2 (stereo partly drawn) [Example 325, (S)-quinuclidin-3-yl (5-(4-isobutylphenyl)-6-methoxy-2,2-dimethyl-2,3-dihydro-1H-inden-1-yl)carbamate] was run?
Answer: 2.1 nM

Same assay, conditions: Homo sapiens, Jurkat, 72 h

Question: For CCCOc1c(C)cc(-c2cc3c(cc2OC)C(NC(=O)O[C@@H]2CN4CCC2CC4)C(C)(C)C3)cc1C (stereo partly drawn) [Example 321, (S)-quinuclidin-3-yl (5-(3,5-dimethyl-4-propoxyphenyl)-6-methoxy-2,2-dimethyl-2,3-dihydro-1H-inden-1-yl)carbamate], which IC50 is on record?
Answer: 31.9 nM

Question: How did the IC50 turn out when COc1cc2c(cc1-c1ccc(OC(C)C)c(Cl)c1)CC(C)(C)C2NC(=O)O[C@@H]1CN2CCC1CC2 (stereo partly drawn) [Example 322, (S)-quinuclidin-3-yl (5-(3-chloro-4-isopropoxyphenyl)-6-methoxy-2,2-dimethyl-2,3-dihydro-1H-inden-1-yl)carbamate] was run?
Answer: 24.4 nM

Question: With COc1ccc(-c2cc3c(cc2OC)C(NC(=O)O[C@@H]2CN4CCC2CC4)C(C)(C)C3)c(F)c1 (stereo partly drawn) [Example 323, (S)-quinuclidin-3-yl (5-(2-fluoro-4-methoxyphenyl)-6-methoxy-2,2-dimethyl-2,3-dihydro-1H-inden-1-yl)carbamate] as the molecule, how does the IC50 read?
Answer: 78.9 nM

Question: With CCCCOc1ccc(-c2cc3c(cc2OC)C(NC(=O)O[C@@H]2CN4CCC2CC4)C(C)(C)C3)cc1 (stereo partly drawn) [Example 324, (S)-quinuclidin-3-yl (5-(4-butoxyphenyl)-6-methoxy-2,2-dimethyl-2,3-dihydro-1H-inden-1-yl)carbamate] as the molecule, how does the IC50 read?
Answer: 5.8 nM

Question: With COc1cc2c(cc1-c1ccc(OCC3CC3)nc1)CC(C)(C)C2NC(=O)O[C@@H]1CN2CCC1CC2 (stereo partly drawn) [Example 326, (S)-quinuclidin-3-yl (5-(6-(cyclopropylmethoxy)pyridin-3-yl)-6-methoxy-2,2-dimethyl-2,3-dihydro-1H-inden-1-yl)carbamate] as the molecule, how does the IC50 read?
Answer: 10.8 nM

Question: Which IC50 does the source give for COc1ccc(Cl)cc1-c1cc2c(cc1OC)C(NC(=O)O[C@@H]1CN3CCC1CC3)C(C)(C)C2 (stereo partly drawn) [Example 327, (S)-quinuclidin-3-yl (5-(5-chloro-2-methoxyphenyl)-6-methoxy-2,2-dimethyl-2,3-dihydro-1H-inden-1-yl)carbamate] here?
Answer: 16.8 nM

Question: CCCCc1ccc(-c2cc3c(cc2OC)C(NC(=O)O[C@@H]2CN4CCC2CC4)C(C)(C)C3)cc1 (stereo partly drawn) [Example 328, (S)-quinuclidin-3-yl (5-(4-butylphenyl)-6-methoxy-2,2-dimethyl-2,3-dihydro-1H-inden-1-yl)carbamate] was tested. Which IC50 did it give?
Answer: 11.4 nM

Question: How did the IC50 turn out when COc1cc2c(cc1-c1cc(C)c(OC)c(C)c1)CC(C)(C)C2NC(=O)O[C@@H]1CN2CCC1CC2 (stereo partly drawn) [Example 329, (S)-quinuclidin-3-yl (6-methoxy-5-(4-methoxy-3,5-dimethylphenyl)-2,2-dimethyl-2,3-dihydro-1H-inden-1-yl)carbamate] was run?
Answer: 65.8 nM

Question: Which IC50 does the source give for CCOc1c(C)cc(-c2cc3c(cc2OC)C(NC(=O)O[C@@H]2CN4CCC2CC4)C(C)(C)C3)cc1C (stereo partly drawn) [Example 330, (S)-quinuclidin-3-yl (5-(4-ethoxy-3,5-dimethylphenyl)-6-methoxy-2,2-dimethyl-2,3-dihydro-1H-inden-1-yl)carbamate] here?
Answer: 52.7 nM

Question: With CCCCOc1c(C)cc(-c2cc3c(cc2OC)C(NC(=O)O[C@@H]2CN4CCC2CC4)C(C)(C)C3)cc1C (stereo partly drawn) [Example 331, (S)-quinuclidin-3-yl (5-(4-butoxy-3,5-dimethylphenyl)-6-methoxy-2,2-dimethyl-2,3-dihydro-1H-inden-1-yl)carbamate] as the molecule, how does the IC50 read?
Answer: 22.6 nM

Question: Which IC50 does the source give for COc1cc(-c2cc3c(cc2OC)C(NC(=O)O[C@@H]2CN4CCC2CC4)C(C)(C)C3)ccn1 (stereo partly drawn) [Example 332, (S)-quinuclidin-3-yl (6-methoxy-5-(2-methoxypyridin-4-yl)-2,2-dimethyl-2,3-dihydro-1H-inden-1-yl)carbamate] here?
Answer: 158 nM

Question: COc1cc2c(cc1-c1cccc(F)c1)CC(C)(C)C2NC(=O)O[C@@H]1CN2CCC1CC2 (stereo partly drawn) [Example 333, (S)-quinuclidin-3-yl (5-(3-fluorophenyl)-6-methoxy-2,2-dimethyl-2,3-dihydro-1H-inden-1-yl)carbamate] was tested. Which IC50 did it give?
Answer: 45 nM

Question: CCc1cccc(-c2cc3c(cc2OC)C(NC(=O)O[C@@H]2CN4CCC2CC4)C(C)(C)C3)c1 (stereo partly drawn) [Example 334, (S)-quinuclidin-3-yl (5-(3-ethylphenyl)-6-methoxy-2,2-dimethyl-2,3-dihydro-1H-inden-1-yl)carbamate] was tested. Which IC50 did it give?
Answer: 20.9 nM

Question: For COc1cc2c(cc1-c1cccc(CC(C)C)c1)CC(C)(C)C2NC(=O)O[C@@H]1CN2CCC1CC2 (stereo partly drawn) [Example 335, (S)-quinuclidin-3-yl (5-(3-isobutylphenyl)-6-methoxy-2,2-dimethyl-2,3-dihydro-1H-inden-1-yl)carbamate], which IC50 is on record?
Answer: 50.4 nM

Question: How did the IC50 turn out when COc1cc2c(cc1-c1cccc(C(C)C)c1)CC(C)(C)C2NC(=O)O[C@@H]1CN2CCC1CC2 (stereo partly drawn) [Example 336, (S)-quinuclidin-3-yl (5-(3-isopropylphenyl)-6-methoxy-2,2-dimethyl-2,3-dihydro-1H-inden-1-yl)carbamate] was run?
Answer: 48 nM

Question: How did the IC50 turn out when COc1cc2c(cc1-c1cccc(C(C)(C)C)c1)CC(C)(C)C2NC(=O)O[C@@H]1CN2CCC1CC2 (stereo partly drawn) [Example 337, (S)-quinuclidin-3-yl (5-(3-(tert-butyl)phenyl)-6-methoxy-2,2-dimethyl-2,3-dihydro-1H-inden-1-yl)carbamate] was run?
Answer: 65 nM

Question: How did the IC50 turn out when COc1cccc(-c2cc3c(cc2OC)C(NC(=O)O[C@@H]2CN4CCC2CC4)C(C)(C)C3)c1 (stereo partly drawn) [Example 338, (S)-quinuclidin-3-yl (6-methoxy-5-(3-methoxyphenyl)-2,2-dimethyl-2,3-dihydro-1H-inden-1-yl)carbamate] was run?
Answer: 53.7 nM

Question: Which IC50 does the source give for CCOc1cccc(-c2cc3c(cc2OC)C(NC(=O)O[C@@H]2CN4CCC2CC4)C(C)(C)C3)c1 (stereo partly drawn) [Example 339, (S)-quinuclidin-3-yl (5-(3-ethoxyphenyl)-6-methoxy-2,2-dimethyl-2,3-dihydro-1H-inden-1-yl)carbamate] here?
Answer: 62.5 nM

Question: With CCCOc1cccc(-c2cc3c(cc2OC)C(NC(=O)O[C@@H]2CN4CCC2CC4)C(C)(C)C3)c1 (stereo partly drawn) [Example 340, (S)-quinuclidin-3-yl (6-methoxy-2,2-dimethyl-5-(3-propoxyphenyl)-2,3-dihydro-1H-inden-1-yl)carbamate] as the molecule, how does the IC50 read?
Answer: 43.8 nM

Question: With COc1cc2c(cc1-c1cccc(OC(C)C)c1)CC(C)(C)C2NC(=O)O[C@@H]1CN2CCC1CC2 (stereo partly drawn) [Example 341, (S)-quinuclidin-3-yl (5-(3-isopropoxyphenyl)-6-methoxy-2,2-dimethyl-2,3-dihydro-1H-inden-1-yl)carbamate] as the molecule, how does the IC50 read?
Answer: 61.9 nM

Question: CCCCOc1cccc(-c2cc3c(cc2OC)C(NC(=O)O[C@@H]2CN4CCC2CC4)C(C)(C)C3)c1 (stereo partly drawn) [Example 342, (S)-quinuclidin-3-yl (5-(3-butoxyphenyl)-6-methoxy-2,2-dimethyl-2,3-dihydro-1H-inden-1-yl)carbamate] was tested. Which IC50 did it give?
Answer: 21.6 nM

Question: Which IC50 does the source give for COc1cc2c(cc1-c1cccc(OCC(C)C)c1)CC(C)(C)C2NC(=O)O[C@@H]1CN2CCC1CC2 (stereo partly drawn) [Example 343, (S)-quinuclidin-3-yl (5-(3-isobutoxyphenyl)-6-methoxy-2,2-dimethyl-2,3-dihydro-1H-inden-1-yl)carbamate] here?
Answer: 45.7 nM

Question: With COc1ccc(OC)c(-c2cc3c(cc2OC)C(NC(=O)O[C@@H]2CN4CCC2CC4)C(C)(C)C3)c1 (stereo partly drawn) [Example 344, (S)-quinuclidin-3-yl (5-(2,5-dimethoxyphenyl)-6-methoxy-2,2-dimethyl-2,3-dihydro-1H-inden-1-yl)carbamate] as the molecule, how does the IC50 read?
Answer: 51 nM
